In patent US9394446B2, “Method for recovering Ru complex dye from used dye solution” (Tanaka Kikinzoku Kogyo K.K., priority 2012, dated 2016):

Legend:
[1] = Preliminary test: dissolving property of dye solution components in ether-based solvents, alkane-based solvents and water; settings: for dissolving property in Dibutyl ether: 1 mg (solvents: 1 mL) in 1 mL dibutyl ether; for dissolving property in Dibutyl ether / dissolving property in Diethyl ether / dissolving property in Diisopropyl ether / dissolving property in Heptane / dissolving property in Hexane / dissolving property in Isoamyl ether / dissolving property in Methyl propyl ether / dissolving property in Octane / dissolving property in Pentane / dissolving property in t-Butyl methyl ether / dissolving property in Water: 25° C.; for dissolving property in Diethyl ether: 1 mg (solvents: 1 mL) in 1 mL diethyl ether; for dissolving property in Diisopropyl ether: 1 mg (solvents: 1 mL) in 1 mL diisopropyl ether; for dissolving property in Heptane: 1 mg (solvents: 1 mL) in 1 mL heptane; for dissolving property in Hexane: 1 mg (solvents: 1 mL) in 1 mL hexane; for dissolving property in Isoamyl ether: 1 mg (solvents: 1 mL) in 1 mL isoamyl ether; for dissolving property in Methyl propyl ether: 1 mg (solvents: 1 mL) in 1 mL methyl propyl ether; for dissolving property in Octane: 1 mg (solvents: 1 mL) in 1 mL octane; for dissolving property in Pentane: 1 mg (solvents: 1 mL) in 1 mL pentane; for dissolving property in t-Butyl methyl ether: 1 mg (solvents: 1 mL) in 1 mL t-butyl methyl ether; for dissolving property in Water: 1 mg (solvents: 1 mL) in 1 mL water, for comparison
[2] = Mixing/dissolving behaviour of DMSO in ethers (inventors' observation); type: physicochemical

Row | Structure (SMILES) | dissolving property in Dibutyl ether [1] | dissolving property in Diethyl ether [1] | dissolving property in Diisopropyl ether [1] | dissolving property in Heptane [1] | dissolving property in Hexane [1] | dissolving property in Isoamyl ether [1] | dissolving property in Methyl propyl ether [1] | dissolving property in Octane [1] | dissolving property in Pentane [1] | dissolving property in t-Butyl methyl ether [1] | dissolving property in Water [1] | dissolving property of isoamyl ether, in words ([1]; isoamyl ether (C5H11—O—C5H11)) | dissolving property of octane, in words ([1]; octane with a carbon number of 8) | mixing or dissolving in ethers (diethyl ether), in words [2]
1 | CC#N [Acetonitrile, acetonitrile] | ⊙ (those dissolved at 5 g/L or more and those fully miscible with a solvent for dye solution were labeled as “⊙” with excellent dissolving property) | ⊙ (those dissolved at 5 g/L or more and those fully miscible with a solvent for dye solution were labeled as “⊙” with excellent dissolving property) | ⊙ (those dissolved at 5 g/L or more and those fully miscible with a solvent for dye solution were labeled as “⊙” with excellent dissolving property) | ⊙ (those dissolved at 5 g/L or more and those fully miscible with a solvent for dye solution were labeled as “⊙” with excellent dissolving property) | ⊙ (those dissolved at 5 g/L or more and those fully miscible with a solvent for dye solution were labeled as “⊙” with excellent dissolving property) | ⊙ (those dissolved at 5 g/L or more and those fully miscible with a solvent for dye solution were labeled as “⊙” with excellent dissolving property) | ⊙ (those dissolved at 5 g/L or more and those fully miscible with a solvent for dye solution were labeled as “⊙” with excellent dissolving property) | ⊙ (those dissolved at 5 g/L or more and those fully miscible with a solvent for dye solution were labeled as “⊙” with excellent dissolving property) | ⊙ (those dissolved at 5 g/L or more and those fully miscible with a solvent for dye solution were labeled as “⊙” with excellent dissolving property) | ⊙ (those dissolved at 5 g/L or more and those fully miscible with a solvent for dye solution were labeled as “⊙” with excellent dissolving property) | ⊙ (those dissolved at 5 g/L or more and those fully miscible with a solvent for dye solution were labeled as “⊙” with excellent dissolving property) | – | – | –
2 | C[C@H](CCC(=O)O)[C@H]1CC[C@H]2[C@@H]3[C@H](O)C[C@@H]4C[C@H](O)CC[C@]4(C)[C@H]3CC[C@]12C [CDCA, chenodeoxychloic acid] | ◯ (those having solubility of 0.05 g/L or more but less than 5 g/L and those miscible with a solvent for dye solution were labeled as “∘” with good dissolving property) | ⊙ (those dissolved at 5 g/L or more and those fully miscible with a solvent for dye solution were labeled as “⊙” with excellent dissolving property) | ⊙ (those dissolved at 5 g/L or more and those fully miscible with a solvent for dye solution were labeled as “⊙” with excellent dissolving property) | ◯ (those having solubility of 0.05 g/L or more but less than 5 g/L and those miscible with a solvent for dye solution were labeled as “∘” with good dissolving property) | ◯ (those having solubility of 0.05 g/L or more but less than 5 g/L and those miscible with a solvent for dye solution were labeled as “∘” with good dissolving property) | Δ (those having the solubility of less than 0.05 g/L were labeled as “Δ” with fair dissolving property) | ⊙ (those dissolved at 5 g/L or more and those fully miscible with a solvent for dye solution were labeled as “⊙” with excellent dissolving property) | Δ (those having the solubility of less than 0.05 g/L were labeled as “Δ” with fair dissolving property) | ◯ (those having solubility of 0.05 g/L or more but less than 5 g/L and those miscible with a solvent for dye solution were labeled as “∘” with good dissolving property) | ⊙ (those dissolved at 5 g/L or more and those fully miscible with a solvent for dye solution were labeled as “⊙” with excellent dissolving property) | – | slightly inferior dissolving property | poor dissolving property | –
3 | CCCCOc1ccc(-c2ccc(N(c3ccc(-c4ccc(C=C(C#N)C(=O)O)s4)cc3)c3ccc(-c4ccc(OCCCC)cc4OCCCC)cc3)cc2)c(OCCCC)c1 [D35] | ◯ (those having solubility of 0.05 g/L or more but less than 5 g/L and those miscible with a solvent for dye solution were labeled as “∘” with good dissolving property) | ⊙ (those dissolved at 5 g/L or more and those fully miscible with a solvent for dye solution were labeled as “⊙” with excellent dissolving property) | ⊙ (those dissolved at 5 g/L or more and those fully miscible with a solvent for dye solution were labeled as “⊙” with excellent dissolving property) | Δ (those having the solubility of less than 0.05 g/L were labeled as “Δ” with fair dissolving property) | Δ (those having the solubility of less than 0.05 g/L were labeled as “Δ” with fair dissolving property) | Δ (those having the solubility of less than 0.05 g/L were labeled as “Δ” with fair dissolving property) | ⊙ (those dissolved at 5 g/L or more and those fully miscible with a solvent for dye solution were labeled as “⊙” with excellent dissolving property) | Δ (those having the solubility of less than 0.05 g/L were labeled as “Δ” with fair dissolving property) | Δ (those having the solubility of less than 0.05 g/L were labeled as “Δ” with fair dissolving property) | ⊙ (those dissolved at 5 g/L or more and those fully miscible with a solvent for dye solution were labeled as “⊙” with excellent dissolving property) | – | – | – | –
4 | CC(C)(C)CCP(=O)(O)CCC(C)(C)C [DINHOP, bis-(3,3-dimethyl-butyl)-phosphinic acid] | ⊙ (those dissolved at 5 g/L or more and those fully miscible with a solvent for dye solution were labeled as “⊙” with excellent dissolving property) | ⊙ (those dissolved at 5 g/L or more and those fully miscible with a solvent for dye solution were labeled as “⊙” with excellent dissolving property) | ⊙ (those dissolved at 5 g/L or more and those fully miscible with a solvent for dye solution were labeled as “⊙” with excellent dissolving property) | ⊙ (those dissolved at 5 g/L or more and those fully miscible with a solvent for dye solution were labeled as “⊙” with excellent dissolving property) | ⊙ (those dissolved at 5 g/L or more and those fully miscible with a solvent for dye solution were labeled as “⊙” with excellent dissolving property) | ⊙ (those dissolved at 5 g/L or more and those fully miscible with a solvent for dye solution were labeled as “⊙” with excellent dissolving property) | ⊙ (those dissolved at 5 g/L or more and those fully miscible with a solvent for dye solution were labeled as “⊙” with excellent dissolving property) | ⊙ (those dissolved at 5 g/L or more and those fully miscible with a solvent for dye solution were labeled as “⊙” with excellent dissolving property) | ⊙ (those dissolved at 5 g/L or more and those fully miscible with a solvent for dye solution were labeled as “⊙” with excellent dissolving property) | ⊙ (those dissolved at 5 g/L or more and those fully miscible with a solvent for dye solution were labeled as “⊙” with excellent dissolving property) | Δ (those having the solubility of less than 0.05 g/L were labeled as “Δ” with fair dissolving property) | – | – | –
5 | C[S+](C)[O-] [DMSO, dimethyl sulfoxide] | – | – | – | – | – | – | – | – | – | – | – | – | – | hardly mixed or dissolved
6 | CCO [Ethanol, ethanol] | ⊙ (those dissolved at 5 g/L or more and those fully miscible with a solvent for dye solution were labeled as “⊙” with excellent dissolving property) | ⊙ (those dissolved at 5 g/L or more and those fully miscible with a solvent for dye solution were labeled as “⊙” with excellent dissolving property) | ⊙ (those dissolved at 5 g/L or more and those fully miscible with a solvent for dye solution were labeled as “⊙” with excellent dissolving property) | ⊙ (those dissolved at 5 g/L or more and those fully miscible with a solvent for dye solution were labeled as “⊙” with excellent dissolving property) | ⊙ (those dissolved at 5 g/L or more and those fully miscible with a solvent for dye solution were labeled as “⊙” with excellent dissolving property) | ⊙ (those dissolved at 5 g/L or more and those fully miscible with a solvent for dye solution were labeled as “⊙” with excellent dissolving property) | ⊙ (those dissolved at 5 g/L or more and those fully miscible with a solvent for dye solution were labeled as “⊙” with excellent dissolving property) | ⊙ (those dissolved at 5 g/L or more and those fully miscible with a solvent for dye solution were labeled as “⊙” with excellent dissolving property) | ⊙ (those dissolved at 5 g/L or more and those fully miscible with a solvent for dye solution were labeled as “⊙” with excellent dissolving property) | ⊙ (those dissolved at 5 g/L or more and those fully miscible with a solvent for dye solution were labeled as “⊙” with excellent dissolving property) | ⊙ (those dissolved at 5 g/L or more and those fully miscible with a solvent for dye solution were labeled as “⊙” with excellent dissolving property) | – | – | –
